From patent US9458110B2, “Phenylpyrazole derivatives as potent ROCK1 and ROCK2 inhibitors” (BRISTOL-MYERS SQUIBB COMPANY, priority 2013, dated 2016) come the findings set out here.

Molecules are shown by their SMILES.

For experiment [1], the target named is ROCK2 (Homo sapiens (Human), UniProt O75116). In words: ROCK assay (Caliper LABCHIP peptide phosphorylation), ROCK2.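 Further: reaction stopped with EDTA, then phosphorylated and unphosphorylated peptide resolved by microfluidic electrophoresis, kinase inhibition computed at each compound concentration in dose-response series, DMSO under 2%.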 The settings on record: 5 μM ATP, 1.5 μM peptide substrate. Type of experiment: biochemical.
Sequence of ROCK2 (O75116 whole entry, species assumed): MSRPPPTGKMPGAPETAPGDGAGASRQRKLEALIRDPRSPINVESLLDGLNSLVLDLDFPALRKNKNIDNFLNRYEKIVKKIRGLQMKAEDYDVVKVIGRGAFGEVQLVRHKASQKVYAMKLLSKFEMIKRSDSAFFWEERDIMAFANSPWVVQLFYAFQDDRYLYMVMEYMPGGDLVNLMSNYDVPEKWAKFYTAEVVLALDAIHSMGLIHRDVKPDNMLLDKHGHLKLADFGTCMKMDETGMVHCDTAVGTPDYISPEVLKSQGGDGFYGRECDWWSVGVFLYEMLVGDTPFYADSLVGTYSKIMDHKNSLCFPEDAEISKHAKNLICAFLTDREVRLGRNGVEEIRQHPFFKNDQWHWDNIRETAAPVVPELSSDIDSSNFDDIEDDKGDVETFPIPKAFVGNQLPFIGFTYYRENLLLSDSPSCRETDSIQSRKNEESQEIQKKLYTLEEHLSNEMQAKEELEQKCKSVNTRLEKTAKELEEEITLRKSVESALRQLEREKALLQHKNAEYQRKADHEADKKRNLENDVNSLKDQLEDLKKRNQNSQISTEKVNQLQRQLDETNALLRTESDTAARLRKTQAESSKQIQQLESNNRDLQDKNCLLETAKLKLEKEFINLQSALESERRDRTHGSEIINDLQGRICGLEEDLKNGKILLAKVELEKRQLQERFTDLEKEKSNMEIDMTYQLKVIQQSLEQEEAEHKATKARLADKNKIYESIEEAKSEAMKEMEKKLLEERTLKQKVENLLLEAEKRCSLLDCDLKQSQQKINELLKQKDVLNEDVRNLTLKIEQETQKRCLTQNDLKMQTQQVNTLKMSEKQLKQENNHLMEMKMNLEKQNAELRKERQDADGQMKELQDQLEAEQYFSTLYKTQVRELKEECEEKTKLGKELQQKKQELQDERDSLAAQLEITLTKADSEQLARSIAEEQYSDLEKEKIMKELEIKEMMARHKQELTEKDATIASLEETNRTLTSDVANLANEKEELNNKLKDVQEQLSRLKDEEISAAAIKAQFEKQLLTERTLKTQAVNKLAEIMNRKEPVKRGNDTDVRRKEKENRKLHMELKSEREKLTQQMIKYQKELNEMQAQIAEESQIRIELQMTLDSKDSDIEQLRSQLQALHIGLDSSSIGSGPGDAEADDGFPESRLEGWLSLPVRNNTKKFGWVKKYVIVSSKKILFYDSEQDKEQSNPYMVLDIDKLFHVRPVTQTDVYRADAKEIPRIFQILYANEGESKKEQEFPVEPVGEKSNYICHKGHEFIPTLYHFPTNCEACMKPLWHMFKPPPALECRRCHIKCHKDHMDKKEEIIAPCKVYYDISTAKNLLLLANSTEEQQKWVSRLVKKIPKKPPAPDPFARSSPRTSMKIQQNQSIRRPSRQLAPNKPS
In experiment [2] the target is ROCK1 (Homo sapiens (Human), UniProt Q13464). In words: ROCK assay (Caliper LABCHIP peptide phosphorylation), ROCK1.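 Further: Read-out is separation of phosphorylated from unphosphorylated peptide, with kinase activity inhibition computed at every concentration of a dose-response series.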 The experiment is classed as biochemical. The settings on record: 5 μM ATP, 1.5 μM peptide substrate.
Sequence of ROCK1 (Q13464 whole entry, species assumed): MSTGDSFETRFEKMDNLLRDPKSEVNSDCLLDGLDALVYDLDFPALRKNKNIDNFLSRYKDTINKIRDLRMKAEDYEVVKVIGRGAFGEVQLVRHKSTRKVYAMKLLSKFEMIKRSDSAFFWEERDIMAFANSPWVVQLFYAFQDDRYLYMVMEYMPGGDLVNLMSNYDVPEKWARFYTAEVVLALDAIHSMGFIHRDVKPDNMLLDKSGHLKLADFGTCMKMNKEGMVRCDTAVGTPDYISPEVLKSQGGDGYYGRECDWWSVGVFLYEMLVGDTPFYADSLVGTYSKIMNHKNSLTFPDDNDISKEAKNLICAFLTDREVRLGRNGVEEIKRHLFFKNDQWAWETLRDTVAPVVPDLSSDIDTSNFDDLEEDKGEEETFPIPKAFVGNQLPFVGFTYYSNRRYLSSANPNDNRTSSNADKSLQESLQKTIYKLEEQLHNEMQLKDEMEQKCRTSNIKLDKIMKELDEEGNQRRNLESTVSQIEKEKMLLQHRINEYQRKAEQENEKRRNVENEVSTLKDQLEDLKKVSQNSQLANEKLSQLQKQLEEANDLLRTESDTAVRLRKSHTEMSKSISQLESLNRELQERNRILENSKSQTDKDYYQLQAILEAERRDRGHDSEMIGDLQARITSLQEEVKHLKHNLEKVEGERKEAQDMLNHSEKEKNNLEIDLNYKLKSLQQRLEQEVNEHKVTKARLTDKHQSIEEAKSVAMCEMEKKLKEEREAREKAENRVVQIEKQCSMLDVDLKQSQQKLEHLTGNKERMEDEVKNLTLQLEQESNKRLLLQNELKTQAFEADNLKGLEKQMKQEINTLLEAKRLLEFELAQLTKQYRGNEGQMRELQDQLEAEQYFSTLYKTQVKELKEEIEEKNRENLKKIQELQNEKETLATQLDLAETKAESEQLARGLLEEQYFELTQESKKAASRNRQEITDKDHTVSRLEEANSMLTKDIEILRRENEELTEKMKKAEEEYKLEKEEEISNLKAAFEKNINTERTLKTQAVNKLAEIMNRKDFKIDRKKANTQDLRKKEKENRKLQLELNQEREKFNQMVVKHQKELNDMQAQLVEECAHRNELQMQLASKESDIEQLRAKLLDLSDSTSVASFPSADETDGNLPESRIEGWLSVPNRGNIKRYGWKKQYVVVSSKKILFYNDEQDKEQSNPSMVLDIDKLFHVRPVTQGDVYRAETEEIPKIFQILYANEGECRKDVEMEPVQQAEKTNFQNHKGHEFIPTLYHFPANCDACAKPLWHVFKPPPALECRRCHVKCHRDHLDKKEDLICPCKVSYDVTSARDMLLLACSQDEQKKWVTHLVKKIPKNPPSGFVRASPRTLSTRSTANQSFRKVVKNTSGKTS

As for `COC(=O)c1cccc(CNC(=O)c2ccc(-c3cn[nH]c3)c(C)c2)c1` [Example 108, methyl 3-({[3-methyl-4-(1H-pyrazol-4-yl)phenyl] formamido}methyl) benzoate], the IC50 (as a rule, the concentration that inhibits the measured activity by half) in experiment [1] was 2.61 nM; in experiment [2] it was 13.9 nM.

Regarding `COc1cccc([C@@H](C)NC(=O)c2ccc(-c3cn[nH]c3)cc2Cl)c1` [Example 109, 2-chloro-N-[(1R)-1-(3-methoxyphenyl)ethyl]-4-(1H-pyrazol-4-yl)benzamide], the half-maximal inhibitory concentration (IC50) came to 144 nM in experiment [1] and 529 nM in experiment [2].

For `COc1cc(C(=O)N[C@H](CO)[C@H](O)c2ccccc2)ccc1-c1cn[nH]c1` [Example 112, N-[(1R,2R)-1,3-dihydroxy-1-phenylpropan-2-yl]-3-methoxy-4-(1H-pyrazol-4-yl)benzamide], the IC50 was found to be 2.72 nM in experiment [1] and 23.9 nM in experiment [2].

For `COC[C@H](NC(=O)c1ccc(-c2cn[nH]c2)c(OC)c1)[C@@H](O)c1ccccc1` [Example 113, N-[(1S,2S)-1-hydroxy-3-methoxy-1-phenylpropan-2-yl]-3-methoxy-4-(1H-pyrazol-4-yl)benzamide], the IC50 in experiment [1] came out at 330 nM; in experiment [2], 602 nM.

For `COc1cccc(CCNC(=O)c2ccc(-c3cn[nH]c3)c(OC)c2)c1` [Example 114, 3-methoxy-N-[2-(3-methoxyphenyl)ethyl]-4-(1H-pyrazol-4-yl)benzamide], the IC50 came to 59.6 nM in experiment [1] and 92.9 nM in experiment [2].

As to `COc1cc(C(=O)N[C@@H](Cc2ccccc2)C(N)=O)ccc1-c1cn[nH]c1` [Example 115, (2S)-2-{[3-methoxy-4-(1H-pyrazol-4-yl)phenyl] formamido}-3-phenyl-propanamide], the half-inhibitory concentration (IC50) in experiment [1] turned out to be 14 nM; in experiment [2], 37.4 nM.

In the case of `COc1cccc(C2(NC(=O)c3ccc(-c4cn[nH]c4)c(OC)c3)CC2)c1` [Example 116, 3-methoxy-N-[1-(3-methoxyphenyl)cyclopropyl]-4-(1H-pyrazol-4-yl)benzamide], the results for the IC50 in experiment [1] and in experiment [2] were 17.9 nM and 55.2 nM, respectively.

In the case of `COc1cc(C(=O)NC[C@H](C)c2ccccc2)ccc1-c1cn[nH]c1` [Example 117, 3-methoxy-N-[(2R)-2-phenylpropyl]-4-(1H-pyrazol-4-yl)benzamide], the figures for the half-maximal inhibitory concentration (IC50) in experiment [1] and in experiment [2] were 30.2 nM and 50.5 nM, respectively.

For the compound `COc1cc(C(=O)NCC(C#N)c2ccccc2)ccc1-c1cn[nH]c1` (stereo not shown) [Example 118, N-(2-cyano-2-phenylethyl)-3-methoxy-4-(1H-pyrazol-4-yl)benzamide], the figures for the IC50 in experiment [1] and in experiment [2] were 27.7 nM and 38.7 nM, respectively.

As for `COc1cc(C(=O)N[C@@H](Cc2ccc(F)cc2)C(=O)N(C)C)ccc1-c1cn[nH]c1` [Example 119, (2S)-3-(4-fluorophenyl)-2-{[3-methoxy-4-(1H-pyrazol-4-yl)phenyl] formamido}-N,N-dimethyl-propanamide], the IC50 in experiment [1] was determined as 1010 nM; in experiment [2], 2270 nM.

`COc1cc(C(=O)NCCc2cccc(C(F)(F)F)c2)ccc1-c1cn[nH]c1` [Example 120, 3-methoxy-4-(1H-pyrazol-4-yl)-N-{2-[3-(trifluoro-methyl)phenyl]ethyl} benzamide]: the IC50 in experiment [1] was determined as 52 nM; in experiment [2], 94.6 nM.

Turning to `COc1cc(C(=O)NCCc2ccc(C(F)(F)F)cc2)ccc1-c1cn[nH]c1` [Example 121, 3-methoxy-4-(1H-pyrazol-4-yl)-N-{2-[4-(trifluoro-methyl)phenyl]ethyl} benzamide], the IC50 in experiment [1] is 78.1 nM; in experiment [2] it was 166 nM.

As for `COc1cc(C(=O)NCC(O)c2ccccc2Cl)ccc1-c1cn[nH]c1` (stereo not shown) [Example 122, N-[2-(2-chlorophenyl)-2-hydroxyethyl]-3-methoxy-4-(1H-pyrazol-4-yl)benzamide], the values for the IC50 in experiment [1] and in experiment [2] were 23.2 nM and 35.5 nM, respectively.

Regarding `COc1cc(C(=O)NC[C@@H](O)c2ccccc2)ccc1-c1cn[nH]c1` [Example 123, N-[(2S)-2-hydroxy-2-phenylethyl]-3-methoxy-4-(1H-pyrazol-4-yl)benzamide], the IC50 in experiment [1] came to 41.6 nM; in experiment [2] it was 84.1 nM.

For `COc1cc(C(=O)NCCc2cccc(O)c2)ccc1-c1cn[nH]c1` [Example 124, N-[2-(3-hydroxyphenyl)ethyl]-3-methoxy-4-(1H-pyrazol-4-yl)benzamide], the results for the IC50 in experiment [1] and in experiment [2] were 7 nM and 21.5 nM, respectively.

In the case of `COc1cc(C(=O)NCC(c2ccccc2)N2CCCC2)ccc1-c1cn[nH]c1` (stereo not shown) [Example 125, 3-methoxy-N-[2-phenyl-2-(pyrrolidin-1-yl)ethyl]-4-(1H-pyrazol-4-yl)benzamide], the IC50 turned out to be 84.9 nM in experiment [1] and 156 nM in experiment [2].

Regarding `COc1ccccc1CCNC(=O)c1ccc(-c2cn[nH]c2)c(OC)c1` [Example 126, 3-methoxy-N-[2-(2-methoxyphenyl)ethyl]-4-(1H-pyrazol-4-yl)benzamide], the figures for the IC50 in experiment [1] and in experiment [2] were 1350 nM and 155 nM, respectively.

Take `COc1cc(C(=O)NC[C@@H](O)c2cccc(Cl)c2)ccc1-c1cn[nH]c1` [Example 127, N-[(2S)-2-(3-chlorophenyl)-2-hydroxyethyl]-3-methoxy-4-(1H-pyrazol-4-yl)benzamide]: the IC50 in experiment [1] is 32.1 nM; in experiment [2], 23.4 nM.

Turning to `COc1cc(C(=O)N[C@H](CO)Cc2ccccc2)ccc1-c1cn[nH]c1` [Example 128, N-[(2S)-1-hydroxy-3-phenylpropan-2-yl]-3-methoxy-4-(1H-pyrazol-4-yl)benzamide], the IC50 in experiment [1] stood at 5.7 nM; in experiment [2], 12.5 nM.

With `COc1cc(C(=O)NC[C@@H](C)c2ccccc2)ccc1-c1cn[nH]c1` [Example 129, 3-methoxy-N-[(2S)-2-phenylpropyl]-4-(1H-pyrazol-4-yl)benzamide], the IC50 stood at 33.1 nM in experiment [1] and 34 nM in experiment [2].

`COc1cc(C(=O)NC[C@H](O)c2ccccc2)ccc1-c1cn[nH]c1` [Example 130, N-[(2R)-2-hydroxy-2-phenylethyl]-3-methoxy-4-(1H-pyrazol-4-yl)benzamide]: the concentration for half-maximal inhibition (IC50) was 33.4 nM in experiment [1] and 53.7 nM in experiment [2].

With `COc1cc(C(=O)NCC(O)c2cccc(O)c2)ccc1-c1cn[nH]c1` (stereo not shown) [Example 131, N-[2-hydroxy-2-(3-hydroxyphenyl)ethyl]-3-methoxy-4-(1H-pyrazol-4-yl)benzamide], the IC50 in experiment [1] worked out at 12.7 nM; in experiment [2], 42 nM.

`COc1cc(C(=O)NCC(c2ccccc2)N2CCNCC2)ccc1-c1cn[nH]c1` (stereo not shown) [Example 132, 3-methoxy-N-[2-phenyl-2-(piperazin-1-yl)ethyl]-4-(1H-pyrazol-4-yl)benzamide]: the IC50 amounted to 103 nM in experiment [1] and 180 nM in experiment [2].

On to `COc1cc(C(=O)N[C@@H](CO)Cc2ccccc2)ccc1-c1cn[nH]c1` [Example 133, N-[(2R)-1-hydroxy-3-phenylpropan-2-yl]-3-methoxy-4-(1H-pyrazol-4-yl)benzamide], for which the IC50 in experiment [1] was found to be 34 nM; in experiment [2] it was 77.9 nM.

Consider `COC(=O)c1cc(CNC(=O)c2ccc(-c3cn[nH]c3)c(OC)c2)ccc1F` [Example 134, methyl 2-fluoro-5-({[3-methoxy-4-(1H-pyrazol-4-yl)phenyl] formamido}methyl)benzoate], for which the IC50 was found to be 0.82 nM in experiment [1] and 6.53 nM in experiment [2].

As for `COc1cccc(C(C)NC(=O)c2ccc(-c3cn[nH]c3)c(OC)c2)n1` (stereo not shown) [Example 135, 3-methoxy-N-[1-(6-methoxypyridin-2-yl)ethyl]-4-(1H-pyrazol-4-yl)benzamide], the IC50 came to 16.9 nM in experiment [1] and 73.4 nM in experiment [2].
